Measured values from the supplement of paper PMC10307832.

Assays:
Test in all cases: relative viability (nuclei count vs DMSO), 5 days (fraction); higher = more cells survive
Carboplatin + Pictilisib = compound: C1CC(C1)(C(=O)O)C(=O)O.[NH2-].[NH2-].[Pt+2] [Carboplatin] + CS(=O)(=O)N1CCN(Cc2cc3nc(-c4cccc5[nH]ncc45)nc(N4CCOCC4)c3s2)CC1 [Pictilisib] (partner 1 µM)
Outline: (§1)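 Each reported value is a median over duplicate plates. It expresses relative viability: treated-well nuclei count divided by vehicle-well nuclei count. Lung cancer cell lines in 1536-well plates were dosed by pin tool a day after seeding, alone with one drug or with a fixed anchor-drug dose plus five library-drug doses (not always all listed) in √10 steps, and nuclei were counted after 5 days.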

MLN4924 + Trametinib = compound: NS(=O)(=O)OC[C@@H]1C[C@@H](n2ccc3c(N[C@H]4CCc5ccccc54)ncnc32)C[C@@H]1O [MLN4924] + CC(=O)Nc1cccc(-n2c(=O)n(C3CC3)c(=O)c3c(Nc4ccc(I)cc4F)n(C)c(=O)c(C)c32)c1 [Trametinib] (partner 0.02 µM)
Outline: as §1

MLN4924 + Palbociclib = compound: NS(=O)(=O)OC[C@@H]1C[C@@H](n2ccc3c(N[C@H]4CCc5ccccc54)ncnc32)C[C@@H]1O [MLN4924] + CC(=O)c1c(C)c2cnc(Nc3ccc(N4CCNCC4)cn3)nc2n(C2CCCC2)c1=O [Palbociclib] (partner 0.5 µM)
Outline: as §1

MLN4924 + AZD7762 = compound: NS(=O)(=O)OC[C@@H]1C[C@@H](n2ccc3c(N[C@H]4CCc5ccccc54)ncnc32)C[C@@H]1O [MLN4924] + NC(=O)Nc1cc(-c2cccc(F)c2)sc1C(=O)N[C@H]1CCCNC1 [AZD7762] (partner 0.2 µM)
Outline: as §1

Cell Line	relative viability (Carboplatin + Pictilisib; first compound 0.08 µM)	relative viability (Carboplatin + Pictilisib; first compound 0.253 µM)	relative viability (Carboplatin + Pictilisib; first compound 0.8 µM)	relative viability (Carboplatin + Pictilisib; first compound 2.53 µM)	relative viability (Carboplatin + Pictilisib; first compound 8 µM)	relative viability (MLN4924 + Trametinib; first compound 0.04 µM)	relative viability (MLN4924 + Trametinib; first compound 0.1265 µM)	relative viability (MLN4924 + Trametinib; first compound 0.4 µM)	relative viability (MLN4924 + Trametinib; first compound 1.265 µM)	relative viability (MLN4924 + Trametinib; first compound 4 µM)	relative viability (MLN4924 + Palbociclib; first compound 0.04 µM)	relative viability (MLN4924 + Palbociclib; first compound 0.1265 µM)	relative viability (MLN4924 + Palbociclib; first compound 0.4 µM)	relative viability (MLN4924 + Palbociclib; first compound 1.265 µM)	relative viability (MLN4924 + Palbociclib; first compound 4 µM)	relative viability (MLN4924 + AZD7762; first compound 0.04 µM)	relative viability (MLN4924 + AZD7762; first compound 0.1265 µM)	relative viability (MLN4924 + AZD7762; first compound 0.4 µM)	relative viability (MLN4924 + AZD7762; first compound 1.265 µM)	relative viability (MLN4924 + AZD7762; first compound 4 µM)
NCI-H1395	0.722	0.548	0.854	0.548	0.513	1.07	1.02	0.836	0.392	0.385	0.726	0.679	0.528	0.357	0.354	0.493	0.416	0.383	0.408	0.331
NCI-H1437	0.433	0.401	0.414	0.381	0.413	0.547	0.483	0.502	0.226	0.218	0.292	0.321	0.228	0.187	0.134	0.999	0.852	0.855	0.589	0.285
NCI-H1651	0.681	0.498	0.644	0.452	0.411	0.799	0.853	0.81	0.512	0.185	0.521	0.54	0.569	0.374	0.191	0.495	0.53	0.47	0.436	0.158
NCI-H1666	0.527	0.561	0.404	0.403	0.389	0.762	0.601	0.615	0.429	0.51	0.553	0.549	0.693	0.492	0.46	0.726	0.755	0.614	0.356	0.362
NCI-H1734	0.51	0.47	0.487	0.451	0.424	0.705	0.715	0.181	0.123	0.126	0.372	0.341	0.272	0.14	0.146	0.863	0.641	0.204	0.104	0.111
NCI-H1755	0.432	0.442	0.407	0.417	0.391	0.813	0.749	0.801	0.348	0.215	0.4	0.442	0.314	0.209	0.257	0.604	0.682	0.666	0.411	0.255
NCI-H1792	0.327	0.261	0.236	0.22	0.246	0.376	0.441	0.566	0.433	0.238	0.654	0.583	0.689	0.453	0.353	0.914	0.866	1.21	0.413	0.242
NCI-H1793	0.396	0.345	0.316	0.382	0.329	0.417	0.426	0.508	0.376	0.294	0.338	0.295	0.442	0.265	0.214	0.714	0.463	0.51	0.406	0.216
NCI-H1915	0.938	0.929	0.919	0.85	0.588	0.346	0.39	0.403	0.261	0.167	0.501	0.396	0.389	0.161	0.121	0.844	0.786	0.713	0.265	0.162
NCI-H1944	0.338	0.321	0.336	0.327	0.342	0.388	0.353	0.329	0.193	0.186	0.374	0.371	0.366	0.197	0.178	0.766	0.627	0.39	0.186	0.123
NCI-H1975	0.324	0.305	0.306	0.315	0.302	0.344	0.544	0.44	0.38	0.312	0.549	0.696	0.707	0.557	0.231	0.636	0.973	1.54	1.79	0.756
NCI-H1993	0.805	0.891	0.745	0.869	0.811	0.63	0.425	0.388	0.415	0.356	0.792	0.428	0.422	0.362	0.377	0.756	0.572	0.424	0.369	0.405
NCI-H2085	0.525	0.502	0.477	0.458	0.399	0.486	0.509	0.575	0.559	0.293	0.489	0.505	0.587	0.556	0.416	0.989	0.972	1.07	0.941	0.603
NCI-H2087	0.968	0.868	0.859	0.826	0.504	0.23	0.217	0.291	0.129	0.0965	0.184	0.184	0.19	0.0803	0.093	1.3	1.17	0.604	0.165	0.128
NCI-H2126	0.47	0.516	0.518	0.511	0.452	0.576	0.563	0.484	0.329	0.243	0.403	0.424	0.397	0.327	0.237	1.02	1.02	0.767	0.49	0.369
